Experimental data taken from the supplement of paper PMC10307832.

Legend:
Experiment in all cases: relative viability (nuclei count vs DMSO), 5 days (fraction); higher = more cells survive
BGJ398 + Dasatinib = compound: CCN1CCN(c2ccc(Nc3cc(N(C)C(=O)Nc4c(Cl)c(OC)cc(OC)c4Cl)ncn3)cc2)CC1 [BGJ398] + Cc1nc(Nc2ncc(C(=O)Nc3c(C)cccc3Cl)s2)cc(N2CCN(CCO)CC2)n1 [Dasatinib] (partner 0.075 µM)
Outline: (§1)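 The day after seeding in 1536-well plates, lung cancer cell lines were treated by pin tool with a single drug, or with a fixed anchor-drug dose together with five library-drug doses (not always all listed) in √10 steps. After 5 days, a combined fix-and-stain solution (final 0.05% Triton X-100, 1% formaldehyde, 1 ug/ml Hoechst) was added. Nuclei counted on 4× images gave relative viability as treated counts over vehicle counts, reported as the median of duplicate plates.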

[1] = compound: C1=CC2=NC=CN=C2C=C1/C=C/3\C(=O)NC(=O)S3 + Nc1ncn([C@H]2C[C@H](O)[C@@H](CO)O2)c(=O)n1 [Decitabine] (partner 2 µM)
Outline: as §1

BGJ398 + Luminespib = compound: CCN1CCN(c2ccc(Nc3cc(N(C)C(=O)Nc4c(Cl)c(OC)cc(OC)c4Cl)ncn3)cc2)CC1 [BGJ398] + CCNC(=O)c1noc(-c2cc(C(C)C)c(O)cc2O)c1-c1ccc(CN2CCOCC2)cc1 [Luminespib] (partner 0.01 µM)
Outline: as §1

[2] = compound: C1=CC2=NC=CN=C2C=C1/C=C/3\C(=O)NC(=O)S3 + CC(C)C[C@H](NC(=O)[C@H](Cc1ccccc1)NC(=O)c1cnccn1)B(O)O [Bortezomib] (partner 0.002 µM)
Outline: as §1

| Cell Line | relative viability (BGJ398 + Dasatinib; first compound 0.01 µM) | relative viability (BGJ398 + Dasatinib; first compound 0.03162 µM) | relative viability (BGJ398 + Dasatinib; first compound 0.1 µM) | relative viability (BGJ398 + Dasatinib; first compound 0.3162 µM) | relative viability (BGJ398 + Dasatinib; first compound 1 µM) | relative viability ([1]; first compound 0.02 µM) | relative viability ([1]; first compound 0.06325 µM) | relative viability ([1]; first compound 0.2 µM) | relative viability ([1]; first compound 0.6325 µM) | relative viability ([1]; first compound 2 µM) | relative viability (BGJ398 + Luminespib; first compound 0.01 µM) | relative viability (BGJ398 + Luminespib; first compound 0.03162 µM) | relative viability (BGJ398 + Luminespib; first compound 0.1 µM) | relative viability (BGJ398 + Luminespib; first compound 0.3162 µM) | relative viability (BGJ398 + Luminespib; first compound 1 µM) | relative viability ([2]; first compound 0.02 µM) | relative viability ([2]; first compound 0.06325 µM) | relative viability ([2]; first compound 0.2 µM) | relative viability ([2]; first compound 0.6325 µM) | relative viability ([2]; first compound 2 µM) |
| --- | --- | --- | --- | --- | --- | --- | --- | --- | --- | --- | --- | --- | --- | --- | --- | --- | --- | --- | --- | --- |
| NCI-H650 | 0.414 | 0.515 | 0.526 | 0.45 | 0.401 | 0.32 | 0.287 | 0.356 | 0.319 | 0.342 | 0.803 | 0.913 | 0.784 | 0.84 | 0.98 | 0.977 | 0.775 | 0.907 | 0.78 | 0.379 |
| NCI-H661 | 0.835 | 0.854 | 0.897 | 0.79 | 0.746 | 0.555 | 0.571 | 0.574 | 0.527 | 0.575 | 0.926 | 0.936 | 0.937 | 0.851 | 0.852 | 0.925 | 0.614 | 0.812 | 0.751 | 0.95 |
| NCI-H727 | 0.462 | 0.337 | 0.316 | 0.384 | 0.447 | 0.891 | 0.848 | 0.957 | 0.915 | 0.445 | 0.365 | 0.467 | 0.367 | 0.345 | 0.314 | 0.777 | 0.828 | 0.795 | 0.833 | 0.475 |
| NCI-H838 | 0.278 | 0.337 | 0.28 | 0.257 | 0.225 | 0.429 | 0.46 | 0.415 | 0.481 | 0.39 | 0.299 | 0.302 | 0.272 | 0.253 | 0.234 | 0.711 | 0.908 | 0.878 | 0.595 | 0.684 |
| NCI-H1355 | 0.658 | 0.713 | 0.74 | 0.735 | 0.507 | 0.348 | 0.353 | 0.357 | 0.367 | 0.33 | 0.683 | 0.705 | 0.793 | 0.735 | 0.696 | 1.02 | 1.23 | 1.18 | 1.2 | 1.05 |
| NCI-H1437 | 0.484 | 0.444 | 0.373 | 0.42 | 0.424 | 0.548 | 0.546 | 0.588 | 0.536 | 0.617 | 1.18 | 1.19 | 1.05 | 1.12 | 1.11 | 0.475 | 0.647 | 0.564 | 0.475 | 0.408 |
| NCI-H1650 | 0.31 | – | 0.205 | 0.163 | 0.17 | 0.425 | 0.375 | 0.47 | 0.36 | 0.347 | 0.195 | – | 0.196 | 0.205 | 0.197 | 0.207 | 0.173 | 0.219 | 0.201 | 0.213 |
| NCI-H1651 | 0.48 | 0.416 | 0.482 | 0.256 | 0.333 | 0.56 | 0.424 | 0.651 | 0.576 | 0.552 | 0.989 | 0.811 | 0.9 | 0.949 | 0.773 | 0.956 | 0.637 | 0.949 | 0.96 | 0.893 |
